Legend:
[1] = molecular target: T1, human calpain-1 (Homo sapiens, UniProt P07384); assay: in vitro calpain assay with succinic-Leu-Tyr-AMC, calpain-1; assay type: biochemical; details: human calpain-1, succinic-Leu-Tyr-AMC
T1 sequence (P07384 1-714): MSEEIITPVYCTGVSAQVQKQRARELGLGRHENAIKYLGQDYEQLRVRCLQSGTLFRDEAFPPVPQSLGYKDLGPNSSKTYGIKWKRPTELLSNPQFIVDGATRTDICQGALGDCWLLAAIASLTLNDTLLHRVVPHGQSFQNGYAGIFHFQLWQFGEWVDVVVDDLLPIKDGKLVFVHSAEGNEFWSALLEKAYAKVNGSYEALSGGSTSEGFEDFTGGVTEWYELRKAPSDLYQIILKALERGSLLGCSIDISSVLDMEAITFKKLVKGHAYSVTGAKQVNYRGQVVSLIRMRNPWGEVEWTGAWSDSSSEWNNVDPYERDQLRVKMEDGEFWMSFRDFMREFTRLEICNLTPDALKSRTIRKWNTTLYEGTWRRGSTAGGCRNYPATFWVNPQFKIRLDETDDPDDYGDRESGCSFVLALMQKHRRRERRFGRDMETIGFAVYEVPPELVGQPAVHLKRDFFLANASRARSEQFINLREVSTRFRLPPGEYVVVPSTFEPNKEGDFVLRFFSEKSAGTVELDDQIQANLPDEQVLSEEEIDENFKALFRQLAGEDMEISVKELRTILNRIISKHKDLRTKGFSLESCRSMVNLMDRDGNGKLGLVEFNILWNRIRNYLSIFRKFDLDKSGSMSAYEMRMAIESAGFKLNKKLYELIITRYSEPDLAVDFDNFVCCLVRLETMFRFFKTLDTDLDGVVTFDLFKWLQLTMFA
T1 sequence (P04632 1-268 partner): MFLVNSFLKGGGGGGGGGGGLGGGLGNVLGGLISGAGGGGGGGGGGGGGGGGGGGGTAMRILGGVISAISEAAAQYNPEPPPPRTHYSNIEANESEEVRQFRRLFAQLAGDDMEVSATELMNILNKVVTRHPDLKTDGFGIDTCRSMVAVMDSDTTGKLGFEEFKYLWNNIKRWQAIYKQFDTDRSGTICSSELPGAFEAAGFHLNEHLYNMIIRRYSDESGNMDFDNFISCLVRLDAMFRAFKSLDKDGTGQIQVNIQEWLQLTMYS
Experimental: (§1) NA115A (Compound 15 (S above) was introduced at various concentrations into an in vitro mix comprising succinic-Leu-Tyr-AMC and human calpain-1 or calpain-2 (Sasaki et al, 1984), and the kinetics of the […] of fluorescence were determined for each of the calpains. The Kis of NA115, NA115A and NA115B for calpain-1 and calpain-2 are shown in Tables 1-2 below. The efficacy of NA115 against calpain-1 or calpain-2 appears to be only in NA115A.

[2] = test system: calpain-2 activation in the retina; assay: acute glaucoma model (increased IOP), SBDP immunohistochemistry in retina; assay type: in vivo; details: mouse
Experimental: Immunohistochemistry for SBDP (green) in sections from a sham animal (surgery only), animal subjected to increased IOP and injected intraocularly with vehicle (10% DMSO in PBS, 1 μl; IOP)), increased IOP and injected with NA115 (40 μM, 100 μM, and 200 μM). Blue staining represents cell nuclear staining with the retinal ganglion cells on the upper layer.
For each image, mean fluorescence intensity (MFI) is analyzed in the inner plexiform layer (layer between the 2 cell body layers in FIG. 1). Three frozen sections (20 μm-thick), cut through the optic disc of each eye, were collected and stained with SBDP antibody. In each section, three images were captured under 60× objective of a confocal microscope (LSM-880). For each image, MFI (mean fluorescence intensities) in the IPL layer were measured in ImageJ and averaged. N=2 animals/group.
Same experimental procedure as in FIGS. 1-4. NA117 was injectedintraocularly at a concentration of 200 μM). One-way ANOVA followed by Bonferroni test. *p<0.05, **p<0.01. Results are means±SEM of 2 animals. Scale bar=20 microns.
(§2) The model of acute glaucoma previously reported in Wang et al. (2016) was used. In this model, intraocular pressure (IOP) was increased to 110 mm Hg for 1 h with the mouse under anesthesia. Two h later mice received an intraocular injection of various concentrations of a calpain-2 inhibitor and were returned to their home cages. […]

[3] = test system: retinal ganglion cells; assay: acute glaucoma model (increased IOP), beta-III tubulin staining of retinal wholemounts; assay type: in vivo; details: mouse, 200 μM, 1 μl intraocular 2 h after IOP elevation, 3 days after increased IOP
Experimental: Immunohistochemistry is shown with staining in the peripheral area of retinal wholemounts, with anti-beta-III tubulin, a marker for retinal ganglion cells, 3 days after increased IOP in a sham animal, an animal subjected to increased IOP and injected with vehicle (10% DMSO in PBS, 1 μl; IOP)) and an animal subjected to increased IOP and injected with NA115 (200 μM). Scale bar=100 microns.
Vehicle (10% DMSO in PBS, 1 μl) or NA115 (200 μM, 1 μl) was injected 2 h after IOP elevation. Retinal whole mounts were prepared 3 days after the surgery. One-way ANOVA followed by Bonferroni test. ****p<0.0001, **p<0.01. N=8 for Sham. N=7 for IOP, IOP+NA115.
as §2, with “cages. They were sacrificed 4 h later for determination of calpain activity using immunohistochemistry to stain for the spectrin breakdown product (SBDP) selectively generated by calpain-mediated truncation of spectrin. Previous studies (Wang et al., 2016) have shown that, at this time-point calpain activity represents calpain-2 activity.” for “cages.”

[4] = molecular target: T2, calpain-2 (Homo sapiens, UniProt P17655); assay: IC50 on calpain-1 and calpain-2 activities (Wang et al., 2014), selectivity; assay type: biochemical
T2 sequence (P17655 1-700): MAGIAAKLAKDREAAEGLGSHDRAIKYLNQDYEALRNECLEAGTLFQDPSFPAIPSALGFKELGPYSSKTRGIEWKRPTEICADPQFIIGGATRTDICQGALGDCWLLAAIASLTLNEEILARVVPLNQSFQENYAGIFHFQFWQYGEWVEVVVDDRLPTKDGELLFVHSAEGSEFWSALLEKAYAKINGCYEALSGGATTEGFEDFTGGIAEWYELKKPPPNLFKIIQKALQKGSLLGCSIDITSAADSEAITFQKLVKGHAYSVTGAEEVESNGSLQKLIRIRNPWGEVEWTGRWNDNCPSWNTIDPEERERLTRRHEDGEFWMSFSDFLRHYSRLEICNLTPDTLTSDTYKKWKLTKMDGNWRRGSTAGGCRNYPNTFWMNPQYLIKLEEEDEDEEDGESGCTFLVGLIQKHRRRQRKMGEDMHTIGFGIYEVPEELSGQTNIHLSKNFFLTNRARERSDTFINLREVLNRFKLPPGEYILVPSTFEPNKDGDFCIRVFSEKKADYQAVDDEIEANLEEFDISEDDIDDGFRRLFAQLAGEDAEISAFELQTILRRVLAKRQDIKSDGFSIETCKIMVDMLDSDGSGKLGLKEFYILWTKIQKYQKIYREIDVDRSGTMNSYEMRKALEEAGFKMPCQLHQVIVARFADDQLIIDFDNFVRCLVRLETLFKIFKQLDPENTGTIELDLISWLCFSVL
T2 sequence (P04632 1-268 partner): T1 sequence (P04632 1-268 partner)
Experimental: These compounds can be calpain-2 selective inhibitors. […] IC50 values for NA115 on the activity of calpain-1 and calpain-2 activities were measured (Wang et al., 2014). […] The selectivity of NA117 was 24.1. [0016] Pharmaceutical compositions of the invention comprise NA115 and NA117, and a pharmaceutically acceptable excipient. Excipients used in pharmaceutical composition of the invention are safe and provide the appropriate delivery for the desired route of administration, of an effective amount of NA115 and NA117.

[5] = molecular target: T2, calpain-2; assay: in vitro calpain assay with succinic-Leu-Tyr-AMC, calpain-2; assay type: biochemical; details: for IC50 / Ki: human calpain-2, succinic-Leu-Tyr-AMC
Experimental: as §1

[6] = plasma stability in mouse plasma; assay type: in vitro ADME; details: mouse plasma; solubilized in 2-Hydroxypropyl)-beta-cyclodextrin or captisol, depending on the solvent
Experimental: Stability of NA115 was evaluated with NA115 solubilized in 2-Hydroxypropyl)-beta-cyclodextrin or in captisol.
Moreover, 1 mM of the NA115 in beta-cyclodextrin was diluted 5 times in freshly prepared mouse plasma (200 μM NA115 in plasma). The mixture was incubated at 37 degree. At indicated time point, 1 μl of the mixture was added to 99 ul of calpain assay solution containing 5 mM Ca2+, 200 μM Suc-Leu-Tyr-AMC substrate and 100 nM calpain-2. Hydrolysis rate was monitored in the plate reader. As a control, 1 μl of plasma alone was subjected to calpain assay and its hydrolysis rate was set as 100% of calpain activity.

[7] = epimerization in pig vitreous fluid, aliquots tested in the calpain-2 assay; assay type: in vitro ADME; details: 35° C.; for change of inhibitory effect in the calpain-2 assay after incubation: 2 μM, various periods of time
Experimental: NA115A or NA115B (2 μM) was incubated with pig vitreous fluid for various periods of time at 35° C. Aliquots were then tested in the calpain-2 assay. […] (FIGS. 9A-9D).

Row | IC50 [1] | Ki [1] | IC50 [5] | Ki [5] | change of inhibitory effect in the calpain-2 assay after incubation [7] | epimerization [7] | Compound | inhibition of calpain-2 activation (SBDP staining) in the retina following increased IOP ([2]; intraocular injection 40 μM, 100 μM, 200 μM, 2 h after IOP elevation, sacrificed 4 h later) | protection of retinal ganglion cells (anti-beta-III tubulin positive cells) from increased IOP-induced cell death [3] | selectivity for calpain-2, ratio of IC50 calpain-1/IC50 calpain-2 [4] | Ratio KiCalpain-1/KiCalpain-2 [5] | half-life at 200 μM [6] | inhibition of calpain activation (SBDP staining) following increased IOP ([2]; intraocular injection 200 μM)
1 | 331 nM | 189 nM | 196 nM | 124 nM | rapid decrease in the inhibitory effect | rapid epimerization | CC[C@H](NC(=O)[C@H](CC(C)C)NC(=O)CCc1ccccc1)C(=O)C(=O)NCc1cc(F)cc(OC)c1 [NA115A] | – | – | – | 1.5 | – | –
2 | > 10000 nM | > 10000 nM | > 10000 nM | > 10000 nM | increased inhibitory effect | rapid epimerization | CC[C@@H](NC(=O)[C@H](CC(C)C)NC(=O)CCc1ccccc1)C(=O)C(=O)NCc1cc(F)cc(OC)c1 [NA115B] | – | – | – | – | – | –
3 | – | – | – | – | – | – | CCC(NC(=O)[C@H](CC(C)C)NC(=O)CCc1ccccc1)C(=O)C(=O)NCc1cccc(OC)c1 (stereo partly drawn) [NA117, N-(3-methoxybenzyl)-3-((S)-4-methyl-2-(3-phenylpropanamido)pentanamido)-2-oxopentanamide] | – | – | 24.1 | – | – | also inhibits calpain activation following increased IOP

Row | Compound | IC50 [1] | Ki [1] | IC50 [5] | Ki [5] | change of inhibitory effect in the calpain-2 assay after incubation [7] | epimerization [7] | inhibition of calpain-2 activation (SBDP staining) in the retina following increased IOP ([2]; intraocular injection 40 μM, 100 μM, 200 μM, 2 h after IOP elevation, sacrificed 4 h later) | protection of retinal ganglion cells (anti-beta-III tubulin positive cells) from increased IOP-induced cell death [3] | selectivity for calpain-2, ratio of IC50 calpain-1/IC50 calpain-2 [4] | Ratio KiCalpain-1/KiCalpain-2 [5] | half-life at 200 μM [6] | inhibition of calpain activation (SBDP staining) following increased IOP ([2]; intraocular injection 200 μM)
4 | CCC(NC(=O)[C@H](CC(C)C)NC(=O)CCc1ccccc1)C(=O)C(=O)NCc1cc(F)cc(OC)c1 (stereo partly drawn) [NA115, N-(3-fluoro-5-methoxybenzyl)-3-((S)-4-methyl-2-(3-phenylpropanamido)-pentanamido)-2-oxopentanamide] | 750 nM | 470 nM | 170 nM | 103 nM | – | – | dose-dependently inhibiting calpain-2 activation in the retina following increased IOP | protects against retinal ganglion from increased ocular pressure-induced cell death | 31.7 | 4.5 | 9 to 15 h | –

— US20210179543A1, “CALPAIN-2 SELECTIVE INHIBITOR COMPOUNDS FOR TREATMENT OF GLAUCOMA” (Western University of Health Sciences, priority 2018, published 2021)
